Experimental data reported in patent EP2656853A1, “METHOD FOR TREATING ACUTE CEREBRAL AND SPINAL BLOOD FLOW DISORDERS OF AN ISCHAEMIC OR HA[…]” (Zakrytoe Aktsionernoe Obschestvo "Pharm-Sintez", priority 2010, dated 2012).

Legend:
murine bone marrow cells [1] = details: positive control, 20 mg/kg intraperitoneally, male mice
From the text: The Study purpose was to reveal and quantitatively assess the cytogenetic activity (mutagenicity) of the pharmacologic drugs in the mammalian bone marrow polychromatophils. The method's base is the micronuclei cells microscopic registration.
The experimental used the male and female F1(CBAx C57BI6/J) hybrid mice, two-month age, 18 to 20 grams body weight. Every group included 6 animals. The animals were kept under the 12-hour light regime, with freely available water and food. The single and five fold administration protein-polypeptide complex mutagenicity assessment animal experiments were in compliance with the official protocols. Three experimental series with relevant controls were performed: therapeutic dosage: males, single administration; subtoxic dosage: males, single administration; and therapeutic dosage: males and females, five fold administration. […]
(§1) The bone marrow cells preparations for the micronuclei account were made in conventional manner, in accordance with the "Micronuclear Test Environmental Factors Mutagenicity Assessment in Mammalian Organs Cells" Guidelines. […] 2000 polychromatophils per animal were then analyzed with coded preparations. At the 500 erythrocytes count the polychromatophil to normochromatic erythrocytes ratio was determined.

murine bone marrow cells [2] = details: positive control, 20 mg/kg intraperitoneally, male mice; remark: listed apart in the source
From the text: The Study purpose is to reveal and quantitatively assess the cytogenetic activity (mutagenicity) of the pharmacologic drugs in the mammalian bone marrow polychromatophils. The method's base is the micronuclei cells microscopic registration.
The experimental used the male and female F1(CBAx C57BI6/J) hybrid mice, two-month age, 18 to 20 grams body weight. Every group included 6 animals. The animals were kept under the 12-hour light regime, with freely available water and feed. The single and five fold administration protein-polypeptide complex mutagenicity assessment animal experiments were in compliance with the official protocols. Three experimental series with relevant controls were performed: therapeutic dosage: males, single administration; subtoxic dosage: males, single administration; and therapeutic dosage: males and females, five fold administration. […]
as §1

O=P1(N(CCCl)CCCl)NCCCO1 (stereo not shown) [cyclophosphamide]
higher micronuclei cells vs. control (murine bone marrow cells [1]): 19.6 fold
micronuclei cells (murine bone marrow cells [1]; control 3.16‰): 62.1 ‰
higher micronuclei cells count vs. control (murine bone marrow cells [2]): 19.6 fold
micronuclei cells count (murine bone marrow cells [2]; control 3.16‰): 62.1 ‰
